Where “and” joins values, the source holds several entries; their conditions need not be identical. Identical values can stand only once. Like-named read-outs stand apart in the source and are kept apart here.

In one assay the test system is Dd2-Polδ parasites. Nature of the assay: P. falciparum proliferation assay (72 h, fluorescent DNA-intercalating dye). The class given is cell-based, Plasmodium falciparum. The procedure:
For experiments with all other parasites, the effects of compounds of interest on parasite proliferation was measured in 96-well plates containing serial dilutions of the compounds in culture medium, with a fluorescent DNA-intercalating dye used to detect surviving parasites. The assays were initiated with erythrocytes infected with predominantly ring-stage parasites, and the starting parasitaemia and haematocrit were both 1%.

In a further assay the test system is NF54^WT parasites. The assay can be described thus: microbe, parasite or virus in culture. The class given is cell-based, Plasmodium falciparum. Conditions: for FC (IC50) / FC (IC90): reference line. In outline:
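Predominantly ring-stage cultures at 0.3% parasitaemia, 1% haematocrit, in medium with 10% O+ human serum; compound exposure 72 h, DMSO <0.5% (v/v). Live parasites counted by flow cytometry with SYBR Green I and 200 nM MitoTracker Deep Red. IC50/IC90 from linear interpolation of dose-response data.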

In assay [1] the target is T1, PfATP4^G358S (membranes from Dd2-Polδ-PfATP4^G358S parasites) (Plasmodium falciparum, UniProt A0A143ZZK9, G358S).
T1 sequence (A0A143ZZK9 1-1264 G358S): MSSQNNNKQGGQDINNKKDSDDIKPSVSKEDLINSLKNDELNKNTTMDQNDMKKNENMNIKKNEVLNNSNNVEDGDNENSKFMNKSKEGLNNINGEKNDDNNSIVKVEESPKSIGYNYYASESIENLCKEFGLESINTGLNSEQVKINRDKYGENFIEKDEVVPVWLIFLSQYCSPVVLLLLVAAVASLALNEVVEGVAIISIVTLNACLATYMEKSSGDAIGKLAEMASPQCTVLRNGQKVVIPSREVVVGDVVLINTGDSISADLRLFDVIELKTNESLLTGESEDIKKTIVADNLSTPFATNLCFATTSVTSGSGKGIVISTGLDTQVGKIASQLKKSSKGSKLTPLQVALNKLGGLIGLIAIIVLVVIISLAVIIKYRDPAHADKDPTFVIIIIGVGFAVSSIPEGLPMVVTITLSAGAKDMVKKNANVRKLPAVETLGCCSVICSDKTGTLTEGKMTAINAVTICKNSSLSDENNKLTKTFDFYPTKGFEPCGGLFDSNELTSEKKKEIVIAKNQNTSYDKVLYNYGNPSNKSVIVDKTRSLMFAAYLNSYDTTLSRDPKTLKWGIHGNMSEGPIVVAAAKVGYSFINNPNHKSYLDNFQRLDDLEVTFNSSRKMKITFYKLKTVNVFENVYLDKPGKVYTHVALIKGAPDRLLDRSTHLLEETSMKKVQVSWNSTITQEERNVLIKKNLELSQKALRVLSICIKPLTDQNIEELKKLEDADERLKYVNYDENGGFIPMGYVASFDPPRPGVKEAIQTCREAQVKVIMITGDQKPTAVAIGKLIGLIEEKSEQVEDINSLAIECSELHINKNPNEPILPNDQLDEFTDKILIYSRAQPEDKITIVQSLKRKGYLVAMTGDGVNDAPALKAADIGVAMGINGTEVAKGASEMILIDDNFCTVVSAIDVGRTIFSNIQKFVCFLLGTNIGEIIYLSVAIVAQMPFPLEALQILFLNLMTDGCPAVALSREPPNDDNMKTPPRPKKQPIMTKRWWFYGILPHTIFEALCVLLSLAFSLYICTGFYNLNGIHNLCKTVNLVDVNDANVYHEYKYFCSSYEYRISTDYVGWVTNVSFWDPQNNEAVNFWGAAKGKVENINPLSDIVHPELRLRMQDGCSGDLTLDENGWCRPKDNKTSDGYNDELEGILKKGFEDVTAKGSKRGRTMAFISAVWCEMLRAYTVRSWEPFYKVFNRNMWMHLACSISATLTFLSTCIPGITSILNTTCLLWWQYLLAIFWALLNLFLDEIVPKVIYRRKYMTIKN
Nature of the assay: Membrane ATPase assay, ATP4-associated (Na+-dependent) ATPase activity. Type of assay: biochemical. More on the design: IC50 for inhibition of ATP4-associated ATPase activity, MEAN / IC50 for inhibition of ATP4-associated ATPase activity: unit: nM. Conditions: for IC50 for ATP4-associated ATPase activity: membranes from Dd2-Polδ-PfATP4G358S, mean ± SEM. The protocol:
Membranes from isolated P. falciparum or extracellular T. gondii parasites were prepared by lysing parasites in ice-cold deionized water containing a 1:500 dilution of Protease Inhibitor Cocktail Set III (Merck Millipore), then washing the membrane preparation three times in ice-cold deionized water (with protease inhibitors present for the first two washes)[15]. Protein concentrations in the membrane preparations were measured using a Bradford assay. The PiColorLock Gold Phosphate Detection System (Innova Biosciences) was used to measure the production of Pi from hydrolysis of ATP[15]. Membrane preparations were diluted in either a high Na^+ solution (yielding final conditions in the reactions of 150 mM NaCl, 20 mM KCl, 2 mM MgCl2, 50 mM Tris, pH 7.2) or a Na^+-free solution (yielding final conditions of 150 mM choline chloride, 20 mM KCl, 2 mM MgCl2, 50 mM Tris, pH 7.2) to achieve a total protein concentration of 50 μg/mL. […] The reactions were performed at 37 °C, and were initiated by the addition of 1 mM ATP (Na2ATP۰3H2O; MP Biomedicals) and terminated 10 min later by adding 100 μL of reaction mixture (in duplicate) to 25 μL “Gold mix” in a 96-well plate. […] Background values (averaged from wells containing all components, but to which ATP was not added until after the membrane was exposed to Gold mix) were subtracted from the data. For each treatment, the ATPase activity associated with the (Na^+-dependent) PfATP4 and TgATP4 proteins was calculated by subtracting data obtained in the low Na^+ condition (containing only the 2 mM Na^+ introduced on addition of 1 mM Na2ATP) from that obtained in the high Na^+ condition.

The mark [2] stands for this setting: Dd2-Polδ, single experiments, source data of Fig. 2 (nM in Supplementary Table 1), read-out: IC50 values.
Where [3] appears, read: Plasmodium falciparum, DD2, Dd2-Polδ, MEAN, source data of Fig. 2, read-out: IC50 values, MEAN.
[4] abbreviates: NF54WT parasites, individual experiments, read-out: IC90 values.
The mark [5] stands for this setting: NF54WT, single experiments, source data of Fig. 2 (nM in Supplementary Table 5), read-out: IC50 values.
Setting [6] is: Plasmodium falciparum, NF54, NF54WT parasites, individual experiments, read-out: IC90 values.
Setting [7] is: Plasmodium falciparum, NF54, NF54WT parasites, mean of the experiments, read-out: IC90 values, MEAN.
[8] abbreviates: Plasmodium falciparum, NF54, NF54WT, MEAN, source data of Fig. 2, read-out: IC50 values, MEAN.
Where [9] appears, read: Plasmodium falciparum, NF54, NF54WT, single experiments, source data of Fig. 2 (nM in Supplementary Table 5), read-out: IC50 values.

As to `N#Cc1cc(NC(=O)[C@H]2c3ccccc3C(=O)N(CC(F)(F)F)[C@@H]2c2cccnc2)ccc1F` [(+)-SJ733], the IC50 – broadly, the concentration that inhibits the measured activity by half – was 30.9 nM and 37.1 nM and 51.3 nM in the assay with Dd2-Polδ parasites (setting [2]); 40.7 nM with Dd2-Polδ parasites (setting [3]); 43.6 nM with Dd2-Polδ parasites (Plasmodium falciparum, DD2, Dd2-Polδ, single experiments, source data of Fig. 2 (nM in Supplementary Table 1), read-out: IC50 values); 89.8 nM and 87.1 nM and 107 nM with NF54^WT parasites (setting [5]); 93.8 nM in the assay on NF54^WT parasites (setting [8]); 91.6 nM in the assay with NF54^WT parasites (setting [9]). The IC90 (commonly the concentration needed for an effect of 90%) was 171 nM and 165 nM and 176 nM with NF54^WT parasites (setting [4]); 141 nM in the assay on NF54^WT parasites (setting [6]); 164 nM in the assay on NF54^WT parasites (setting [7]). In addition, in the assay on NF54^WT parasites (NF54WT), the “FC (IC50)” value came out at 1.0 fold. Further, in the assay with NF54^WT parasites (NF54WT), the “FC (IC90)” value turned out to be 1.0 fold. Further, in assay [1] (Dd2-Polδ-PfATP4G358S membranes, single experiments, source data of Table 1 (nM there)), the “IC50 for inhibition of ATP4-associated ATPase activity” value is 816 and 877 and 793. Further, in assay [1], the “IC50 for ATP4-associated ATPase activity” value was 829 ± 25 (3) (P = 5 × 10^−6) nM.

On to `C[C@H]1Cc2c([nH]c3cc(Cl)c(F)cc23)[C@@]2(N1)C(=O)Nc1ccc(Cl)cc12` [Cipargamin], for which the IC50 in the assay on Dd2-Polδ parasites (setting [2]) is 1.4 nM; with Dd2-Polδ parasites (setting [3]), 1.43 nM; with Dd2-Polδ parasites (Plasmodium falciparum, DD2, parental Dd2-Polδ, paired with MMV665949-selected Culture 1, n = 3, read-out: IC50 value), 0.57 ± 0.02 nM; in the assay with NF54^WT parasites (setting [5]), 2.8 nM and 2.5 nM and 2.6 nM; with NF54^WT parasites (setting [8]), 2.64 nM; with NF54^WT parasites (setting [9]), 2.7 nM. In addition, the IC90 in the assay on NF54^WT parasites (setting [4]) is 4.6 nM and 3.5 nM; in the assay with NF54^WT parasites (setting [6]) it was 3.6 nM; in the assay on NF54^WT parasites (setting [7]) it was 3.8 nM. The “FC (IC50)” value with NF54^WT parasites (NF54WT) was 1.0 fold. Also, in the assay with NF54^WT parasites (NF54WT), the “FC (IC90)” value came out at 1.0 fold. Further, the “IC50 for inhibition of ATP4-associated ATPase activity, MEAN” value in assay [1] (Dd2-Polδ-PfATP4G358S membranes, MEAN, source data of Table 1 (nM there)) stood at 99.4. Moreover, the “IC50 for ATP4-associated ATPase activity” value in assay [1] was 99 ± 21 (4) (P = 0.004) nM.

Values taken from paper PMC9525273 (Nature Communications, 2022).
